{"source": "ChEMBL document CHEMBL1201862", "about": "“PubChem BioAssay data set” (2004)", "key": {"[1]": {"assay": "Fluorescence polarization-based biochemical high throughput dose response assay for activators of the Protein Kinase A-R2B (PKA-R2B) complex. [Related pubchem assays (depositor defined):AID504700, AID504704, AID504796, AID504797]"}, "[2]": {"assay": "Fluorescence polarization-based biochemical high throughput dose response assay for activators of the Protein Kinase A-R1A (PKA-R1A) complex. [Related pubchem assays (depositor defined):AID504704, AID504707, AID504799, AID504800]"}, "[3]": {"assay": "alpha-synuclein stem-loop luciferase translation blockers – H4 neuroglioma cells, luminescence, confirmation (AID 1988)", "assay_type": "functional, cell-based"}, "[4]": {"target": "Luciferin 4-monooxygenase (Photuris pensylvanica, UniProt Q27757)", "sequence (Q27757 whole entry)": "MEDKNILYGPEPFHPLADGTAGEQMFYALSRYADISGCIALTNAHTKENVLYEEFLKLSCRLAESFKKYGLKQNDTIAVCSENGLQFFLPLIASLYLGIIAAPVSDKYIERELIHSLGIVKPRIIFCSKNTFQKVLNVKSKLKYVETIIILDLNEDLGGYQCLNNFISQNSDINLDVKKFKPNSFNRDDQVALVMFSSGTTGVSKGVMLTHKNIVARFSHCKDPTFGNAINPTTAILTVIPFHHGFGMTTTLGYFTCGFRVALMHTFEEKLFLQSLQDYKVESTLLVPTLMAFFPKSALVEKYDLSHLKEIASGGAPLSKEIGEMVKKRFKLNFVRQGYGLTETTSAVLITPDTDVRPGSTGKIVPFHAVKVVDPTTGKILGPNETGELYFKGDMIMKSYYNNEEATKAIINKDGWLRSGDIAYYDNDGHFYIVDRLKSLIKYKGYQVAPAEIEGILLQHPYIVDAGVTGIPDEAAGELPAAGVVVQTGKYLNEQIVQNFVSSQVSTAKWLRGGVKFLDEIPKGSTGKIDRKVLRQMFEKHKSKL", "assay": "inhibition of Cell Titer Glo luciferase signal – biochemical, luminescence, cherry-picks, counter-screen for HSF-1 reporter inhibitor project, dose response (AID 588847)"}, "[5]": {"assay": "reduction of Shn3 3'UTR-driven luciferase in osteoblasts – cell-based, Clone20 osteoblasts, firefly luciferase, cherry-picked, dose response (AID 624132)", "assay_type": "functional"}, "[6]": {"assay": "loss of viability in HepG2 cells – cell-based, CellTiter-Glo, cherry-picked, cytotoxicity control for Shn3 inhibitor project, dose response (AID 624134)", "assay_type": "functional"}, "[7]": {"assay": "non-specific 3'UTR reporter inhibition in Clone20-Shn3RL – cell-based, Renilla luciferase, cherry-picked, counter-screen for Shn3 inhibitor project, dose response (AID 624133)", "assay_type": "functional"}, "cells": {"assay": "cells", "assay_type": "functional, cell-based"}, "[8]": {"assay": "luciferase reporter signal suppression in cells – H4 neuroglioma cells, luminescence, dose response (AID 1990)", "assay_type": "functional, cell-based"}, "[9]": {"assay": "luciferase reporter signal reduction – luminescence, H4-C neuroglioblastoma cells, dose response (AID 2458);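 also: H4 neuroglioblastoma cells stably carrying a luciferase reporter gene fusion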", "assay_type": "functional, cell-based"}, "[10]": {"assay": "Luminescence Cell-Based Dose Response HTS to Identify Inhibitors of 5'UTR Stem-Loop Driven Prion Protein mRNA Translation in H4 Neuroglioblastoma Cells. [Related pubchem assays: 1827 (Project Summary), 1813 (Primary HTS)]", "assay_type": "functional"}, "[11]": {"assay": "alpha-synuclein stem-loop translation blockers – luminescence, H4 neuroglioblastoma cells, dose confirmation, confirmation (AID 2454)", "assay_type": "functional, cell-based"}, "[12]": {"target": "T1, Heat shock factor protein 1 (Mus musculus, UniProt P38532)", "T1 sequence (P38532 whole entry)": "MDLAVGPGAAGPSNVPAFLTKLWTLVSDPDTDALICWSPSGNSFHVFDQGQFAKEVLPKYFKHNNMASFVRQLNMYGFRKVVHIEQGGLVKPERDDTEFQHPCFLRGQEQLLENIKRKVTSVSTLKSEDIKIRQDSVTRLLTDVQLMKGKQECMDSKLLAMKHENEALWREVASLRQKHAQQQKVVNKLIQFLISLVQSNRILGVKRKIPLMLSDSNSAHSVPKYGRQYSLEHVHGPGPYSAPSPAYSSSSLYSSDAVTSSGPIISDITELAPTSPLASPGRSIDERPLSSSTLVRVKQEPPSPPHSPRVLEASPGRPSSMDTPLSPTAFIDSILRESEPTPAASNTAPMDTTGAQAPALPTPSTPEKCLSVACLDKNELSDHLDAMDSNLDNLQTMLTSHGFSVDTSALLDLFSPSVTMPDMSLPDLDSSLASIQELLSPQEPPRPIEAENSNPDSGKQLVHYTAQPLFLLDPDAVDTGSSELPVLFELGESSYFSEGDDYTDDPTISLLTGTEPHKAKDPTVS", "assay": "decrease of HSF1-responsive luciferase luminescence – cell-based, NIH3T3, dose retest, confirmation (AID 2382);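 also: NIH3T3 fibroblasts with HSF1-driven luciferase reporter stressed by proteasome inhibitor MG132; luminescence from HSF1-driven luciferase expression after 8 hours of MG132 stress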", "assay_type": "functional"}, "DNA topoisomerase": {"target": "DNA topoisomerase (Yersinia pestis, UniProt A0A2S9PM60)", "sequence (A0A2S9PM60 whole entry)": "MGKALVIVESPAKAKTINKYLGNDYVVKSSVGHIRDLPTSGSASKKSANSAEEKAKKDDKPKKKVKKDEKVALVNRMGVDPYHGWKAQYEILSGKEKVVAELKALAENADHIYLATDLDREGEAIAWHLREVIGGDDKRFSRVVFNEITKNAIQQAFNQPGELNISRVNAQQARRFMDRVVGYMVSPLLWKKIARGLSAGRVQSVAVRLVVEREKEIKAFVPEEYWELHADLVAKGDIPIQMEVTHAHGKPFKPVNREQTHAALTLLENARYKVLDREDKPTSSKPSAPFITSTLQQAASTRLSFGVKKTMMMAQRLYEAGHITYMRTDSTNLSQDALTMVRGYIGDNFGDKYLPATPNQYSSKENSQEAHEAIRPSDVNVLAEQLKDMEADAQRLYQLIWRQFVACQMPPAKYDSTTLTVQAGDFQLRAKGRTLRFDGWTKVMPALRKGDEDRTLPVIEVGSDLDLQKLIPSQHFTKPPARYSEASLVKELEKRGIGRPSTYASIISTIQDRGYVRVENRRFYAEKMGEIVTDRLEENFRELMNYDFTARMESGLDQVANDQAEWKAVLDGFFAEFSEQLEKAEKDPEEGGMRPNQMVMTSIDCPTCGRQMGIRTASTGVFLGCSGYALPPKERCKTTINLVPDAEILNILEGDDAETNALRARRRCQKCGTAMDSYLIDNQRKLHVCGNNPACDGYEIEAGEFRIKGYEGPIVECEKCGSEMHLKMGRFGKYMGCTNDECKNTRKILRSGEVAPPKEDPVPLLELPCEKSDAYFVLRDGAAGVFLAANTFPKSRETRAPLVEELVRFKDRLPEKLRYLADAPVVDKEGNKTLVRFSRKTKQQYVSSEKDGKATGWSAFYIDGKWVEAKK", "assay": "Yersinia topoisomerase I cleavage product accumulation – biochemical, cherry-pick, dose response (AID 588525)"}, "[13]": {"target": "T2, Type-1 angiotensin II receptor (Homo sapiens, UniProt P30556)", "T2 sequence (P30556 whole entry)": "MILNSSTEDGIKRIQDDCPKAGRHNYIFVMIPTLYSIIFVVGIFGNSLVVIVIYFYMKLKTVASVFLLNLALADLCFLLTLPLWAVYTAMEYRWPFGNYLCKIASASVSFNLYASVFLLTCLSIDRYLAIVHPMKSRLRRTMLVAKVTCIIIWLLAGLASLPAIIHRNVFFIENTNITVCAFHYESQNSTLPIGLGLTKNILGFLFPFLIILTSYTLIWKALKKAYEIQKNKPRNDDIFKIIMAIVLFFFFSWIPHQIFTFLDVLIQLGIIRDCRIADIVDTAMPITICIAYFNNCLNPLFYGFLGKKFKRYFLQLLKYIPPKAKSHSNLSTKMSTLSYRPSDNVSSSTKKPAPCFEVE", "assay": "antagonism of angiotensin II type 1 receptor – cell-based, uHTS hits, selectivity assay for APJ receptor antagonist project, dose response (AID 463214)", "assay_type": "functional"}, "Beta-galactosidase": {"target": "Beta-galactosidase (Escherichia coli, UniProt Q8VNN2)", "sequence (Q8VNN2 whole entry)": "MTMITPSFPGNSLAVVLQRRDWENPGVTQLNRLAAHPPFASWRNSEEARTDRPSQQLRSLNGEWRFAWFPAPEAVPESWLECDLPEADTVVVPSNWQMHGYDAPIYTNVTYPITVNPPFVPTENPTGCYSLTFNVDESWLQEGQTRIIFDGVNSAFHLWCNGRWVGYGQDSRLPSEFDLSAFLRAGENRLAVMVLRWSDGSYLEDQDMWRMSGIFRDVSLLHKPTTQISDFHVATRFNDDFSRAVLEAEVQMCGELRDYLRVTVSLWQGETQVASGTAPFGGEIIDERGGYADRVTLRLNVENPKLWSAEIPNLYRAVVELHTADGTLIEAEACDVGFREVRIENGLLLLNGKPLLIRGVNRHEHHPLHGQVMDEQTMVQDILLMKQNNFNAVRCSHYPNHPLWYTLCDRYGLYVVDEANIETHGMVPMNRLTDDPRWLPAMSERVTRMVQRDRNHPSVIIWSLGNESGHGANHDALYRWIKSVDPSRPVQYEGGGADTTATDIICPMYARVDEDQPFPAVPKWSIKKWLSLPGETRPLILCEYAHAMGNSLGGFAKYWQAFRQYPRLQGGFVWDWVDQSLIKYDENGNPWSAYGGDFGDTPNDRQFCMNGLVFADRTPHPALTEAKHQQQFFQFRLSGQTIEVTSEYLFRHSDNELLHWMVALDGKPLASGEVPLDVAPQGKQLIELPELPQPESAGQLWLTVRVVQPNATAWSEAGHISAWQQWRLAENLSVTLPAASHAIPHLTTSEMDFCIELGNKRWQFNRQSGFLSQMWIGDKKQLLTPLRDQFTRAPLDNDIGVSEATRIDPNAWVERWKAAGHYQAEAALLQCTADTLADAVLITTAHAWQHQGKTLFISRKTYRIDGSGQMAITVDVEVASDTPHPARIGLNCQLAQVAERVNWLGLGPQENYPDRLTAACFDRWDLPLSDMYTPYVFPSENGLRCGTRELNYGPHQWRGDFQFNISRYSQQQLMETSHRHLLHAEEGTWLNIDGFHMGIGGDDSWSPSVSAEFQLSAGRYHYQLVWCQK", "assay": "PubChem AID 485352", "assay_type": "functional"}, "Beta-arrestin-1": {"target": "Beta-arrestin-1 (Homo sapiens, UniProt P49407)", "sequence (P49407 whole entry)": "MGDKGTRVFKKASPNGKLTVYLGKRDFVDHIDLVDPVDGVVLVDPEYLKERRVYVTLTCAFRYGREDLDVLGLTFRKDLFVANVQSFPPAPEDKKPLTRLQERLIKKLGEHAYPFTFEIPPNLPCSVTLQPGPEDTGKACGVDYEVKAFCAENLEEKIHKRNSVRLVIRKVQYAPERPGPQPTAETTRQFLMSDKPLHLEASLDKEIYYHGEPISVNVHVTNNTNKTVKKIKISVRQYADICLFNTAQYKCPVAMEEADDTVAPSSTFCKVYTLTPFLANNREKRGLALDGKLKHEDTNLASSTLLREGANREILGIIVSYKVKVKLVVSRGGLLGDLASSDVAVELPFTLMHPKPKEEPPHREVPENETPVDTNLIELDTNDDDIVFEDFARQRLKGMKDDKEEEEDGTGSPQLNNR", "assay": "beta-arrestin/AP2 interaction blockers, potency – biochemical, cherry pick 1, beta2-adaptin appendage, flow cytometry, dose response (AID 588783)", "assay_type": "functional"}, "[14]": {"tested_on": "Streptococcus sp. 'group A'", "assay": "Streptococcus pyogenes SK(-)GAS viability under kanamycin – luminescence, BacTiterGlo, confirmation, counter-screen for streptokinase expression inhibitor project, dose response (AID 1900)", "assay_type": "functional, organism-based"}, "Streptococcus": {"tested_on": "Streptococcus", "assay": "GAS UMAA2166 growth inhibition – luminescence, BacTiterGlo, counter-screen for streptokinase expression inhibitor project, dose response (AID 1915)", "assay_type": "functional, organism-based"}, "Streptokinase A": {"target": "T3, Streptokinase A (Streptococcus pyogenes serotype M1, UniProt P10520)", "T3 sequence (P10520 whole entry)": "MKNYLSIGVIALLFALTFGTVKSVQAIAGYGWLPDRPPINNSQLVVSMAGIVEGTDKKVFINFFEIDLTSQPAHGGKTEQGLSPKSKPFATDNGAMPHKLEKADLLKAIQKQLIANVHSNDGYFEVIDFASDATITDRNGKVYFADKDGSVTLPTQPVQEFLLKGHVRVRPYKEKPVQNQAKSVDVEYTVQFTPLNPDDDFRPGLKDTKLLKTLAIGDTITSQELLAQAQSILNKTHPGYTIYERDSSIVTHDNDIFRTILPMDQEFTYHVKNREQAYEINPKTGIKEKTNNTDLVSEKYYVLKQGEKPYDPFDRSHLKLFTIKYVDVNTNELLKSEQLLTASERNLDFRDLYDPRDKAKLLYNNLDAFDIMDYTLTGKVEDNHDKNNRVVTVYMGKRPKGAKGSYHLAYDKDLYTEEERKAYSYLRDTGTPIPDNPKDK", "assay": "viability-normalized secreted streptokinase activity reduction – plasminogen activation absorbance, OD405, dose response (AID 1914)", "assay_type": "functional, Streptococcus pyogenes M1 GAS"}, "[15]": {"target": "Glycogen synthase kinase-3 alpha (Homo sapiens, UniProt P49840)", "sequence (P49840 whole entry)": "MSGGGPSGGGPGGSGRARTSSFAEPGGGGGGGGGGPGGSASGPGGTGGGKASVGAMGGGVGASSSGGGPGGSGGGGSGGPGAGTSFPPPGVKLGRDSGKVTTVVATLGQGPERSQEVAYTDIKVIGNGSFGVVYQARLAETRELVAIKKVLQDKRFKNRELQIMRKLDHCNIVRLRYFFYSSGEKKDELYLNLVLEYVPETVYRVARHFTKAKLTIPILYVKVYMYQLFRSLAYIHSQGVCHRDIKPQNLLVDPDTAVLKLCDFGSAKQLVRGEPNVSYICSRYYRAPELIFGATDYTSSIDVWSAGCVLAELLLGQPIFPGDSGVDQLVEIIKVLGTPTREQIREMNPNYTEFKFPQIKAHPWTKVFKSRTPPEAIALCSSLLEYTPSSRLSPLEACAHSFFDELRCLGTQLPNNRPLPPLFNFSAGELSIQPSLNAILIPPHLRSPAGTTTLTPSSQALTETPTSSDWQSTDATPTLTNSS", "assay": "Inhibition of Human GSK-3 alpha Activity Measured in Biochemical System Using Microfluidics - 2063-06_Inhibitor_Dose_DryPowder_Activity. [Related pubchem assays (depositor defined):AID2709]"}, "[16]": {"target": "Glycogen synthase kinase-3 beta (Homo sapiens, UniProt P49841)", "sequence (P49841 whole entry)": "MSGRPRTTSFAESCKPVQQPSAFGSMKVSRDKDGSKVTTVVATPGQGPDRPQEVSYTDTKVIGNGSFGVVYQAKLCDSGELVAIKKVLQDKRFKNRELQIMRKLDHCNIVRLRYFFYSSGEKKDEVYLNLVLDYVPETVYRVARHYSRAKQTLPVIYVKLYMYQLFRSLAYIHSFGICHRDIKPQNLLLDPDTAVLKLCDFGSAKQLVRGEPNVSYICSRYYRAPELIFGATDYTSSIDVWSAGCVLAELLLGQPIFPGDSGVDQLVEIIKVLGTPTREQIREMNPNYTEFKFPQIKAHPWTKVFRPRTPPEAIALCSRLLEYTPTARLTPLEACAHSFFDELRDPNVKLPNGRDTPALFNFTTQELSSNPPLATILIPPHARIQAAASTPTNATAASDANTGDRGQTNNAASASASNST", "assay": "Inhibition of Human GSK-3 beta Activity Measured in Biochemical System Using Microfluidics - 2063-05_Inhibitor_Dose_DryPowder_Activity. [Related pubchem assays (depositor defined):AID2709]"}, "[17]": {"assay": "blockade of melanocortin 4 receptor signaling – cell-based, plate reader, cherry pick, counter-screen for LGR2 antagonist project, dose response (AID 743444);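 also: transfected HEK 293 cells stimulated with alpha-MSH peptide; potency of inhibitors of the alpha-MSH evoked signal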", "assay_type": "functional"}, "HEK293": {"tested_on": "HEK293", "assay": "cells", "assay_type": "functional, cell-based", "conditions": "Homo sapiens"}, "[18]": {"assay": "toxicity toward HepG2 liver cells – cell-based, plate reader, cherry-pick, antagonist series, cytotoxicity control, dose response (AID 743416)", "assay_type": "functional"}, "[19]": {"assay": "blockers of bursicon-stimulated LGR2 cAMP reporter – cell-based, HEK293, CRE-luciferase reporter, cherry pick, set 2, dose response (AID 743343);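 also: transfected cells were stimulated with diluted bursicon conditioned medium after compound addition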", "assay_type": "functional"}, "[20]": {"target": "T4, Nuclear receptor subfamily 0 group B member 1 (Homo sapiens, UniProt P51843)", "T4 sequence (P51843 whole entry)": "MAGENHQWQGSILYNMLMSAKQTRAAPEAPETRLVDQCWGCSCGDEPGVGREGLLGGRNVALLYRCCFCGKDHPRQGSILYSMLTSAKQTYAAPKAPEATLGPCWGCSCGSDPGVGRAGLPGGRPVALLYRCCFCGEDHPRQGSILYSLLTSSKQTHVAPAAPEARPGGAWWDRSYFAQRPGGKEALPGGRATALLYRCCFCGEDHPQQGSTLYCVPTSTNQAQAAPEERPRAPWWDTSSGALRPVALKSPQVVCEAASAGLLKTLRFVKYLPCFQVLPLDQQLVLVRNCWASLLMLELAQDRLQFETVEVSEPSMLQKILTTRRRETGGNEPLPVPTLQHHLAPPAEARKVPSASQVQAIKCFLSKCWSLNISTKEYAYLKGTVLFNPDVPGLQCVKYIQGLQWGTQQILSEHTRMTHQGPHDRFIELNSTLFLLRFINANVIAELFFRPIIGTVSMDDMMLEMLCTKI", "assay": "Luminescence-based cell-based high throughput dose response assay for inhibitors of the orphan nuclear receptor subfamily 0, group B, member 1 (DAX1; NR0B1). [Related pubchem assays (depositor defined):AID504766, AID504790]", "assay_type": "functional"}, "[21]": {"target": "Beta-2 adrenergic receptor (Homo sapiens, UniProt P07550)", "sequence (P07550 whole entry)": "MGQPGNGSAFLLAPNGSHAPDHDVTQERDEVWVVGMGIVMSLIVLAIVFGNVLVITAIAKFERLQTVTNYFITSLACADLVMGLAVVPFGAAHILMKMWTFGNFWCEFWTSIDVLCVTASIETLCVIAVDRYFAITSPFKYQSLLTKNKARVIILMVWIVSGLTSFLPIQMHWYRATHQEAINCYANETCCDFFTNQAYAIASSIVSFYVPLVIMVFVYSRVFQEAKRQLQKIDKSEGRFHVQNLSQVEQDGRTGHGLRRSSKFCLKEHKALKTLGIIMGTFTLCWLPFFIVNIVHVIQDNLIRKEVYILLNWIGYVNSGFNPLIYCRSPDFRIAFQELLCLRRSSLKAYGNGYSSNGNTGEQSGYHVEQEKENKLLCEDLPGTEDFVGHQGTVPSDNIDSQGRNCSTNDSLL", "assay": "ADRB2 activation measured by internalization – cell-based, FAP fluorogen, flow cytometry, cherry pick 1, dose response (AID 588763)", "assay_type": "functional"}, "[22]": {"target": "Voltage-gated inwardly rectifying potassium channel KCNH2 (Homo sapiens, UniProt Q12809)", "conditions": "Potency"}, "[23]": {"target": "Beta-adrenergic receptor kinase 1 (Homo sapiens, UniProt P25098)", "sequence (P25098 whole entry)": "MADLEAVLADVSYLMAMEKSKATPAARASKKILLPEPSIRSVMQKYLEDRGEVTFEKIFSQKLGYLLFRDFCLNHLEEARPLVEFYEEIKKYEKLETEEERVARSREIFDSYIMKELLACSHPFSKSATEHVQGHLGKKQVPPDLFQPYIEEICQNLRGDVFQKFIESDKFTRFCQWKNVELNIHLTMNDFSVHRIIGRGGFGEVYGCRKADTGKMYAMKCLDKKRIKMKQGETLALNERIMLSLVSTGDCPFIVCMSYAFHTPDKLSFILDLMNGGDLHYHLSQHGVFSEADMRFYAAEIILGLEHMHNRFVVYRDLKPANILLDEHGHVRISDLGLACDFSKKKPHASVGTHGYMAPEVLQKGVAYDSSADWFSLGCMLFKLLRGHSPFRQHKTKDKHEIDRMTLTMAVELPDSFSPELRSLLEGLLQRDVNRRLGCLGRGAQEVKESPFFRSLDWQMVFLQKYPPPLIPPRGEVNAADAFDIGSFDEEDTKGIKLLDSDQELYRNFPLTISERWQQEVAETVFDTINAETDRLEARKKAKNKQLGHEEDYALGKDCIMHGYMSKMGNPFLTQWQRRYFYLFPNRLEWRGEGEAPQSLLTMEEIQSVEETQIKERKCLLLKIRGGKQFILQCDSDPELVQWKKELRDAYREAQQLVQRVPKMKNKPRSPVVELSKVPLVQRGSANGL", "assay": "aptamer displacement from bead-bound GRK2 – biochemical, cherry pick 1, bead flow cytometry, dose response (AID 504500)"}}, "note": "Active and inactive are the calls of the source."}
{"compound": "Nc1ncnc2c1nc(Sc1ccc(Cl)cc1)n2[C@@H]1O[C@@H]2COP(=O)(O)O[C@H]2[C@H]1O", "values": [{"measurement": "EC50", "setting": "[1]", "value": "50.5 nM (active)"}, {"measurement": "EC50", "setting": "[2]", "value": "32.7 nM (active)"}]}
{"compound": "O=c1c2ccccc2sc2ccc(C#CC3(O)CCCCC3)cc12", "values": [{"measurement": "EC50", "setting": "[3]", "value": "< 100 nM (active)"}, {"measurement": "AC50", "setting": "[4]", "value": "555 nM (active)"}, {"measurement": "AC50", "setting": "[5]", "value": "< 260 nM (active)"}, {"measurement": "AC50", "setting": "[6]", "value": "> 70 µM (inactive)"}, {"measurement": "AC50", "setting": "[7]", "value": "29.8 µM (active)"}, {"measurement": "EC50", "setting": "cells", "value": "83 nM (active)"}, {"measurement": "EC50", "setting": "[8]", "value": "< 100 nM (active)"}, {"measurement": "EC50", "setting": "[9]", "value": "140 nM (active)"}, {"measurement": "EC50", "setting": "[10]", "value": "< 100 nM (active)"}, {"measurement": "EC50", "setting": "[11]", "value": "118 nM (active)"}, {"measurement": "EC50", "setting": "[12]", "value": "< 160 nM (active)"}]}
{"compound": "NC(=O)c1ccccc1NCC(=O)c1ccc(Cl)cc1", "values": [{"measurement": "AC50", "setting": "DNA topoisomerase", "value": "7.76 µM (active)"}, {"measurement": "IC50", "setting": "[13]", "value": "7.41 µM (active)"}, {"measurement": "EC50", "setting": "Beta-galactosidase", "value": "> 40 µM (inactive)"}]}
{"compound": "Brc1ccccc1C1Nc2cccc3cccc(c23)N1", "values": [{"measurement": "IC50", "setting": "Beta-arrestin-1", "value": "2.94 µM (inactive)"}, {"measurement": "EC50", "setting": "[14]", "value": "9.74 µM (active)"}, {"measurement": "EC50", "setting": "Streptococcus", "value": "14.2 µM (active)"}, {"measurement": "EC50", "setting": "Streptokinase A", "value": "> 150 µM (not active)"}]}
{"compound": "Nc1nc(NCCCN2CCOCC2)nc(Nc2ccc(F)cc2)c1[N+](=O)[O-]", "values": [{"measurement": "AC50", "setting": "[15]", "value": "1.25 µM (active)"}, {"measurement": "AC50", "setting": "[16]", "value": "406 nM (active)"}]}
{"compound": "Cc1ccc(-c2cnn3c(N4CCOCC4)cc(C)nc23)cc1", "values": [{"measurement": "AC50", "setting": "[17]", "value": "23.6 µM (active)"}, {"measurement": "IC50", "setting": "HEK293", "value": "> 67.5 µM (inactive)"}, {"measurement": "AC50", "setting": "[18]", "value": "> 52 µM (inactive)"}, {"measurement": "AC50", "setting": "[19]", "value": "17.4 µM (active)"}, {"measurement": "IC50", "setting": "[20]", "value": "> 67.5 µM (inactive)"}]}
{"compound": "CC(=O)N1c2ccccc2C(C)(c2ccccc2)CC1(C)C", "note": "(stereo not given)", "values": [{"measurement": "EC50", "setting": "[21]", "value": "9.29 µM (active)"}]}
{"compound": "NCCNS(=O)(=O)c1cccc2cnccc12", "values": [{"measurement": "AC50", "setting": "[22]", "value": "12.6 µM (inconclusive)"}]}
{"compound": "CCCCCC(=O)Nc1cccc(C2=NOC3(C2)C[C@@H](C(N)=O)N(C(=O)c2ccc(OC)cc2)C3)c1", "note": "(stereo not given in full)", "values": [{"measurement": "EC50", "setting": "[23]", "value": "4.38 µM (active)"}]}
